Among the data in patent US20090163515A1, “Compounds Which Bind to the Active Site of Protein Kinase Enzymes” (Biofocus Discovery Ltd., priority 2003, published 2009) are ROK activity values, retold here.

The assay relates to ROK. The assay is described as follows: ROK activity assay. In kind it is biochemical. The arrangement: key: +: active; ++: more active; +++: very active. The note with it: assays conducted at 1-100 μM.

Regarding `Clc1ccc(CNc2cncc(-c3ccncc3)c2)cc1` [[3,4′]Bipyridinyl-5-yl-(4-chloro-benzyl)-amine], the ROK activity result is “+++”.
As for `COc1ccc(CNc2cncc(-c3ccncc3)c2)cc1` [[3,4′]Bipyridinyl-5-yl-(4-methoxy-benzyl)-amine], the ROK activity result is listed as “+++”.
On to `c1cc(-c2cncc(NCC3CCCCC3)c2)ccn1` [[3,4′]Bipyridinyl-5-yl-cyclohexylmethyl-amine], for which the ROK activity entry was “++”.
The value for `c1cc(-c2cncc(NCc3ccoc3)c2)ccn1` [[3,4′]Bipyridinyl-5-yl-furan-3-ylmethyl-amine] was “++”.
As to `c1ccc2cc(CNc3cncc(-c4ccncc4)c3)ccc2c1` [[3,4′]Bipyridinyl-5-yl-naphthalen-2-ylmethyl-amine], the ROK activity entry is recorded as “++”.
`c1cc(-c2cncc(NCC3CCCN3)c2)ccn1` (centres unmarked) [[3,4′]Bipyridinyl-5-yl-pyrrolidin-2-ylmethyl-amine]: the ROK activity result was “+”.
The value for `COc1ccc(-c2cnc(NCCc3ccncc3)cn2)cc1OC` [[5-(3,4-Dimethoxy-phenyl)-pyrazin-2-yl]-(2-pyridin-4-yl-ethyl)-amine] was “++”; that for `Fc1ccc(-c2cnc(NCCc3ccncc3)cn2)cc1Cl` [[5-(3-Chloro-4-fluoro-phenyl)-pyrazin-2-yl]-(2-pyridin-4-yl-ethyl)-amine] was “+”.
The value for `COc1ccc(-c2cnc(NCCc3ccncc3)cn2)cc1` [[5-(4-Methoxy-phenyl)-pyrazin-2-yl]-(2-pyridin-4-yl-ethyl)-amine] was “++”; that for `CSc1ccc(-c2cnc(NCCc3ccncc3)cn2)cc1` [[5-(4-Methylsulfanyl-phenyl)-pyrazin-2-yl]-(2-pyridin-4-yl-ethyl)-amine] was “++”; that for `OCc1ccc(-c2cnc(NCCc3ccncc3)cn2)cc1` [{4-[5-(2-Pyridin-4-yl-ethylamino)-pyrazin-2-yl]-phenyl}-methanol] was “+”.
